System: human B cells
Test: Human B cells proliferation stimulated by anti-IgM (3H thymidine)
Format: cell-based
Conditions: Homo sapiens, B-cell, 72 h, purified human B cells, anti-Human IgM + CD40L-LZ
Experimental: Human B Cells Proliferation stimulate by anti-IgM
Isolate PBMCs from Leukopac or from human fresh blood. Isolate human B cells by using Miltenyi protocol and B cell isolation kit II.—human B cells were Purified by using autoMACS® column.
Activation of Human B Cells
Use 96 well Flat bottom plate, plate 50000/well purified B cells in B cell proffer-ation medium (DMEM+5% FCS, 10 mM Hepes, 50 μM 2-mercaptoethanol); 150 μL medium contain 250 ng/mL CD40L-LZ recombinant protein (Amgen) and 2 μg/mL anti-Human IgM antibody (Jackson ImmunoReseach Lab.#109-006-129), mixed with 50 μL B cell medium containing PI3K inhibitors and incubate 72 h at 37° C. incubator. After 72 h, pulse labeling B cells with 0.5-1 uCi/well ^3H thymidine for overnight ˜18 h, and harvest cell using TOM harvester.

SMILES | IC50
OC1CCCN(c2nc3c(Cl)cccc3cc2CNc2ncnc3[nH]cnc23)C1 (stereo not drawn) [1-(8-chloro-3-((9H-purin-6-ylamino)methyl)-2-quinolinyl)-3-piperidinol] | 98.8 nM
C[C@H](Nc1ncnc2[nH]cnc12)c1cc2cccc(C#N)c2nc1-c1cccc(F)c1 [2-(3-fluorophenyl)-3-((1S)-1-(9H-purin-6-ylamino)ethyl)-8-quinolinecarbonitrile] | 3.38 nM
N#Cc1cccc2cc(CNc3ncnc4[nH]cnc34)c(-c3cccc(F)c3)nc12 [2-(3-fluorophenyl)-3-((9H-purin-6-ylamino)methyl)-8-quinolinecarbonitrile] | 300 nM
Oc1ccc(F)cc1-c1nc2c(Cl)cccc2cc1CNc1ncnc2[nH]cnc12 [2-(8-chloro-3-((9H-purin-6-ylamino)methyl)-2-quinolinyl)-4-fluorophenol] | 819 nM
N#Cc1ccccc1-c1nc2c(Cl)cccc2cc1CNc1ncnc2[nH]cnc12 [2-(8-chloro-3-((9H-purin-6-ylamino)methyl)-2-quinolinyl)benzonitrile] | 55.1 nM
C[C@H](Nc1ncnc2[nH]cnc12)c1cc2cccc(Cl)c2nc1-c1cnccc1C(N)=O [3-(8-chloro-3-((1S)-1-(9H-purin-6-ylamino)ethyl)-2-quinolinyl)-4-pyridinecarboxamide] | 4640 nM
C[C@H](Nc1ncnc2[nH]cnc12)c1cc2cccc(C#N)c2nc1-c1ccccn1 [3-((1S)-1-(9H-purin-6-ylamino)ethyl)-2-(2-pyridinyl)-8-quinolinecarbonitrile] | 46.7 nM
Clc1cccc2cc(COc3ncnc4[nH]cnc34)c(-c3ccccc3)nc12 [8-chloro-2-phenyl-3((9H-purin-6-yloxy)methyl)quinoline] | 81.4 nM
C[C@H](Oc1ncnc2[nH]ccc12)c1cc2cccc(Cl)c2nc1-c1ccccc1 [8-chloro-2-phenyl-3-((1S)-1-(7H-pyrrolo[2,3-d]pyrimidin-4-yloxy)ethyl)quinoline] | 3.04 nM
OCC[C@H](Nc1ncnc2[nH]cnc12)c1cc2cccc(Cl)c2nc1-c1ccccc1Cl [(3S)-3-(8-chloro-2-(2-chlorophenyl)-3-quinolinyl)-3-(9H-purin-6-ylamino)-1-propanol] | 13.1 nM
C[C@H](Nc1ncnc2[nH]cnc12)c1cc2cccc(F)c2nc1-c1ccccc1 [(S)—N-(1-(8-fluoro-2-phenylquinolin-3-yl)ethyl)-9H-purin-6-amine] | 1.42 nM
Nc1nc(NCc2cc3cccc(Cl)c3nc2-c2ccccc2Cl)c2nc[nH]c2n1 [N6-((8-chloro-2-(2-chlorophenyl)-3-quinolinyl)methyl)-9H-purine-2,6-diamine] | 8.9 nM
C[C@@H](Nc1ncnc2[nH]cnc12)c1nc2cccc(C(F)(F)F)c2nc1-c1ccccc1Cl [N-((1R)-1-(3-(2-chlorophenyl)-5-(trifluoromethyl)-2-quinoxalinyl)ethyl)-9H-purin-6-amine] | 53.4 nM
C[C@@H](Nc1ncnc2[nH]cnc12)c1nc2cccc(Cl)c2cc1-c1cccc(F)c1 [N-((1R)-1-(5-chloro-3-(3-fluorophenyl)-2-quinolinyl)ethyl)-9H-purin-6-amine] | 21 nM
C[C@@H](Nc1ncnc2[nH]cnc12)c1cc2cccc(Cl)c2nc1-c1nccs1 [N-((1R)-1-(8-chloro-2-(1,3-thiazol-2-yl)-3-quinolinyl)ethyl)-9H-purin-6-amine] | 182 nM
C[C@H](Nc1ncnc2[nH]cnc12)c1cc2cccc(-c3cccc(F)c3)c2nc1-c1cccc(F)c1 [N-((1S)-1-(2,8-bis(3-fluorophenyl)-3-quinolinyl)ethyl)-9H-purin-6-amine] | 1.06 nM
C[C@H](Nc1ncnc2[nH]cnc12)c1cc2cccc(-c3ccccn3)c2nc1-c1ccccn1 [N-((1S)-1-(2,8-di-2-pyridinyl-3-quinolinyl)ethyl)-9H-purin-6-amine] | 67.4 nM
C[C@H](Nc1ncnc2[nH]cnc12)c1cc2cccc(-c3ccccc3)c2nc1-c1ccccc1 [N-((1S)-1-(2,8-diphenyl-3-quinolinyl)ethyl)-9H-purin-6-amine] | 18.8 nM
